Entries after “also recorded” stand apart in the source; their conditions may differ.
How the values were obtained:
[1] = tested on: intestinal inflammatory disease (IID) induced by DSS; assay: Intestinal inflammatory disease induced by dextran sulfate sodium in mice; type: in vivo; conditions: for disease clinical score (0 to 6 scale): first two DSS cycles
Protocol: (§1) The mice were subject to two 7-day cycles of exposure to dextran sulfate sodium (DSS) (from day 1 to 7 and from day 14 to 21) in the drinking water separated by 7 days in which regular water was provided (from 7 to 14). One group was treated with vehicle (0.9% NaCl), another with Solu-Medrol (10 mg/kg/day i.m.), and the other two groups with potassium 2,5-diacetoxybenzene sulfonate (DABS), one of them with 100 mg/kg/day i.p. and the other with 125 mg/kg/day, orally (p.o.). The body weight was normalized on day 0. Data are expressed as the mean±SD of the percentage of the basal weight (day 0) of 10 mice per group.
as §1, with “(p.o.)” for “(p.o.). The body weight was normalized on day 0.”, “clinical score” for “percentage”, “disease continuously obtained from” for “basal weight (day 0) of”, “per each” for “per”
The induction of the intestinal inflammatory disease described below is a representative model for the evaluation of therapeutic strategies to treat Crohn's disease and ulcerative colitis. 7-8 week old female mice of strain C57BL/6J-664 were used. The intestinal inflammatory disease (IID) was induced by feeding the mice with 3% dextran sulfate sodium (DSS; MW 40,000) dissolved in drinking water in 2 cycles. Each cycle consisted of 7 days with 3% DSS in the drinking water separated by 7 days with regular water. A daily clinical evaluation of the animals was performed in which the body weight, the consistency of the faeces and the presence of blood in the faeces were determined. Thus, the validated score of the clinical activity of the disease was evaluated with a 0 to 6 scale, considering the following parameters: consistency of the faeces, presence or absence of fecal blood and loss of weight.
At the end of the first cycle of exposure to DSS, the mice were divided into the following treatment groups: a first group was administered intraperitoneal (i.p) injections of vehicle (0.9% NaCl). Another group received intramuscular injections of Solu-Medrol, a standard IID treatment, at a dose of 10 mg/kg/day. A third group was administered i.p. injections of potassium 2,5-diacetroxybenzene sulfonate (DABS, 100 mg/kg/day). The last group was treated orally with 125 mg/kg day of DABS.

Leishmania major = assay: Experimental infection with Leishmania major in a mouse model (paw thickness); type: in vivo, mice
From the text: (§2) The vehicle group consisted of infected animals that received daily injections of saline (0.9% NaCl) during the same period as DHBS. Results are expressed as the mean±the standard deviation of the increases in size of the inoculated paw (right) compared to the non-inoculated paw (left) in mm obtained with a Vernier caliper each week from 0 to 10. ** indicates p<0.01 vs. the vehicle-treated group by a Student t-test. 6 animals were used for each group.
as §2, with “from” for “during”, “moment of the infection, while the control group consisted of non-infected animals.” for “same period as DHBS.”, “9. *” for “10. **”, “p<0.05” for “p<0.01”, “vehicle” for “vehicle-treated”, “7” for “6”
as §2, with “from” for “during”, “third week after the infection.” for “same period as DHBS.”, “9. *” for “10. **”, “p<0.05” for “p<0.01”, “vehicle” for “vehicle-treated”, “7” for “6”
This model is based in the massive inoculation of Leishmania promatigotes in the mouse paw pad. Under these conditions, the parasite induces a progressive inflammation correlated with the multiplication of parasites at the site of inoculation. BALB/c strain female mice that developed severe and uncontrolled injuries were used (Foote S J, Handman E. Brief Funct Genomic Proteomic, 2005). This model has been used in pharmacology to monitor the therapeutic capacity of new leishmanicide compounds and the preventive capacity of potential vaccines against leishmaniasis ((Nelson K G et al. Antimicrob Agents Chemother. 2006).
The animals were inoculated with 5×10^6 of L. major promastigotes (strain Hervás) in 50 μL of PBS into the plantar pad of the right back paw. As negative control of the infection, a group of mice inoculated with 50 μL of PBS was used. The sizes of the lesions were measured every 7 days until the animals were sacrificed (week 9) using a Vernier caliper. The thickness of the right back paw (infected) and the left back paw (uninfected) of all the animals was measured at the base of the fifth toe. The progression of the inflammation is represented as the difference in thickness between the infected and the non-infected paws. […]

For `CC(=O)Oc1ccc(OC(C)=O)c(S(=O)(=O)[O-])c1.[K+]` [DABS, potassium 2,5-diacetoxybenzene sulfonate], the “disease clinical score (0 to 6 scale)” value ([1]; 100 mg/kg/day i.p.) was “reduced”, the “disease clinical score (0 to 6 scale)” value ([1]; 125 mg/kg/day oral) was “reduced” and the “loss of weight produced by the two cycles of exposure to DSS” value ([1]; DABS 100 mg/kg/day i.p. or 125 mg/kg/day p.o., routes not distinguished) was “reduced”. For the same compound, the “efficacy compared with the standard treatment Solu-Medrol” value ([1]; body weight and clinical score, Solu-Medrol 10 mg/kg/day i.m.) was “not lower (in some points it is higher)”, the “size of the lesion (infected vs non-infected paw)” value (Leishmania major; 200 mg/kg/day i.p. from day 0 to week 9, effect from the third week post-infection) was “statistically significant reduction in the size of the lesion” and the “size of the lesion (infected vs non-infected paw)” value (Leishmania major; 200 mg/kg/day i.p. from third week after inoculation, effect from the eighth week) was “significantly smaller; also recorded: Reduction in the size of the lesion”.

From patent US9060966B2, “Use of 2,5-dihydroxybenzene derivatives for the treatment of arthritis and pain” (priority 2006, dated 2015)
